Key:
Type in all cases: toxicity, organism-based
Conditions in all cases: salmonella enterica subsp. enterica serovar typhimurium
Salmonella typhimurium [1] = experiment: Induction of mutagenesis in Salmonella typhimurium TA100 at 160 ug/plate by Ames test in presence of rat liver S9 fraction relative to control
Salmonella typhimurium [2] = experiment: Induction of mutagenesis in Salmonella typhimurium TA98 up to 5000 ug/plate by Ames test
Salmonella typhimurium [3] = experiment: Induction of mutagenesis in Salmonella typhimurium TA100 up to 5000 ug/plate by Ames test
Salmonella typhimurium [4] = experiment: Induction of mutagenesis in Salmonella typhimurium TA98 at 160 ug/plate by Ames test in presence of rat liver S9 fraction relative to control
Salmonella typhimurium [5] = experiment: Induction of mutagenesis in Salmonella typhimurium TA100 up to 5000 ug/plate by Ames test in presence of rat liver S9 fraction
Salmonella typhimurium [6] = experiment: Induction of mutagenesis in Salmonella typhimurium TA98 up to 5000 ug/plate by Ames test in presence of rat liver S9 fraction
Salmonella typhimurium [7] = experiment: Induction of mutagenesis in Salmonella typhimurium TA98 at 500 ug/plate by Ames test in presence of rat liver S9 fraction relative to control
Salmonella typhimurium [8] = experiment: Induction of mutagenesis in Salmonella typhimurium TA100 at 500 ug/plate by Ames test in presence of rat liver S9 fraction relative to control
Salmonella typhimurium [9] = experiment: Induction of mutagenesis in Salmonella typhimurium TA98 at 1600 ug/plate by Ames test in presence of rat liver S9 fraction relative to control
Salmonella typhimurium [10] = experiment: Induction of mutagenesis in Salmonella typhimurium TA100 at 50 ug/plate by Ames test in presence of rat liver S9 fraction relative to control
Salmonella typhimurium [11] = experiment: Induction of mutagenesis in Salmonella typhimurium TA98 at 50 ug/plate by Ames test in presence of rat liver S9 fraction relative to control
Salmonella typhimurium [12] = experiment: Induction of mutagenesis in Salmonella typhimurium TA100 at 16 ug/plate by Ames test in presence of rat liver S9 fraction relative to control

SMILES | fold change (FC) (Salmonella typhimurium [1]) | Activity (Salmonella typhimurium [2]) | Activity (Salmonella typhimurium [3]) | fold change (FC) (Salmonella typhimurium [4]) | Activity (Salmonella typhimurium [5]) | Activity (Salmonella typhimurium [6]) | other results
Nc1ccc(-c2cccc(F)c2)cc1 | 13 | Non-toxic | Non-toxic | 38 |  |  | 
Nc1ccc(-c2ccc(F)cc2F)c(F)c1 |  | Non-toxic | Non-toxic |  | Non-toxic | Non-toxic | 
Nc1ccc(-c2ccccc2)c(Cl)c1 |  | Non-toxic | Non-toxic |  | Non-toxic | Non-toxic | 
N#Cc1ccc(-c2ccc(N)cc2F)c(Cl)c1 |  | Non-toxic | Non-toxic |  | Non-toxic | Non-toxic | 
Nc1ccc(-c2c(F)cccc2F)cc1 | 3 | Non-toxic | Non-toxic |  |  |  | fold change (FC) (Salmonella typhimurium [7]): 7
Nc1ccc(-c2ccc(Cl)cc2)cc1 |  | Non-toxic | Non-toxic | 54 |  |  | fold change (FC) (Salmonella typhimurium [8]): 14
N#Cc1cc(N)ccc1-c1ccccc1Cl |  | Non-toxic | Non-toxic |  | Non-toxic | Non-toxic | 
Nc1ccc(-c2ccccc2)c(F)c1 | 3 | Non-toxic | Non-toxic | 2 |  |  | 
Nc1ccc(-c2c(F)cccc2F)c(F)c1 |  | Non-toxic | Non-toxic |  | Non-toxic | Non-toxic | 
Nc1ccc(-c2ccc(F)cc2)cc1 | 21 | Non-toxic | Non-toxic | 43 |  |  | 
Nc1ccc(-c2ccccc2Cl)cc1 | 5 | Non-toxic | Non-toxic | 11 |  |  | 
CS(=O)(=O)NCc1ccc(-c2ccc(N)cc2F)c(Cl)c1 |  | Non-toxic | Non-toxic |  | Non-toxic |  | fold change (FC) (Salmonella typhimurium [9]): 3
N#Cc1cc(Cl)ccc1-c1ccc(N)cc1F |  | Non-toxic | Non-toxic |  | Non-toxic | Non-toxic | 
Nc1ccc(-c2c(F)cccc2Cl)c(F)c1 |  | Non-toxic | Non-toxic |  | Non-toxic | Non-toxic | 
Nc1ccc(-c2ccccc2Cl)c(F)c1 |  | Non-toxic | Non-toxic |  | Non-toxic | Non-toxic | 
Nc1ccc(-c2ccccc2)cc1Cl |  | Non-toxic | Non-toxic |  |  |  | fold change (FC) (Salmonella typhimurium [10]): 37; fold change (FC) (Salmonella typhimurium [11]): 54
Nc1ccc(-c2ccccc2F)cc1 | 10 | Non-toxic | Non-toxic | 26 |  |  | 
Nc1ccc(-c2ccccc2)cc1F |  | Non-toxic | Non-toxic |  |  |  | fold change (FC) (Salmonella typhimurium [12]): 27; fold change (FC) (Salmonella typhimurium [11]): 54
Nc1ccc(-c2ccccc2F)c(F)c1 |  | Non-toxic | Non-toxic |  | Non-toxic | Non-toxic | 
Nc1ccc(-c2cccc(Cl)c2)cc1 |  | Non-toxic | Non-toxic | 47 |  |  | fold change (FC) (Salmonella typhimurium [10]): 12
